The text below walks through data of patent US12697302B2, “Tricine and citric acid lipids” (Translate Bio, Inc., priority 2019, dated 2026).

The experiment concerns firefly luciferase (FFL) production in the lung. Briefly: Delivery of firefly luciferase (FFL) mRNA by intratracheal administration, IVIS imaging of luciferase production in the lung. Type of experiment: in vivo. Conditions: lipid nanoparticles with FFL mRNA, cationic lipid, DMG-PEG2000, cholesterol, DOPE; single intratracheal aerosol administration; male CD1 mice; 24 hours after administration. As to the method:
Lipid nanoparticle formulations comprising FFL mRNA, cationic lipid, DMG-PEG2000, cholesterol and DOPE were administered to male CD1 mice (6-8 weeks old) by a single intratracheal aerosol administration via a Microsprayer® (50 ul/animal) while under anesthesia. At approximately 24 hours post-dose, the animals were dosed with luciferin at 150 mg/kg (60 mg/ml) by intraperitoneal injection at 2.5 ml/kg. After 5-15 minutes, all animals were imaged using an IVIS imaging system to measure luciferase production in the lung.
For the molecule `CCCCCCCC(=O)OCC(COC(=O)CCCCCCC)(COC(=O)CCCCCCC)N(CC(=O)OCCN(C)C)C(=O)CCCCCCC` [Compound 177, 2-(N-(2-(2-(dimethylamino)ethoxy)-2-oxoethyl)octanamido)-2-((octanoyloxy)methyl) propane-1,3-diyl dioctanoate], the “in vivo protein (FFL) production in the lung / luciferase activity” value is listed as “high levels”.
As for `CCCCCCCCCCCCCCOC(=O)CC(CC(=O)OCCCCCCCCCCCCCC)(OC(=O)CCN1CCCCC1)C(=O)OCCCCCCCCCCCCCC` [Compound 16], the “in vivo protein (FFL) production in the lung / luciferase activity” value was “high levels”.
Consider `CCCCCCCCOC(=O)CC(CC(=O)OCCCCCCCC)(OC(=O)CCN(C)C)C(=O)OCCCCCCCC` [Compound 1, trioctyl 2-((3-(dimethylamino)propanoyl)oxy) propane-1,2,3-tricarboxylate], for which the “in vivo protein (FFL) production in the lung / luciferase activity” value was “high levels”.
As for `CCCCC/C=C\C/C=C\CCCCCCCCOC(=O)CC(CC(=O)OCCCCCCCC/C=C\C/C=C\CCCCC)(OC(=O)CCCN(C)C)C(=O)OCCCCCCCC/C=C\C/C=C\CCCCC` [Compound 249], the entry is “high levels”.
